From US20120003270A1, “6-SUBSTITUTED ISOFLAVONOID COMPOUNDS AND USES THEREOF” (priority 2008, published 2012)

Assays:
[1] = tested on: TXA2; assay: TXA2 synthesis in RAW 264.7 (ELISA); type: cell-based, mouse; settings: LPS 50 ng/ml, 16 hrs
Description: The mouse macrophage cell line RAW 264.7 was cultured in DMEM supplemented with foetal calf serum (FCS), 2 mM glutamine and 50 U/ml penicillin/streptomycin. Cells were treated with either test compounds (in 0.025% DMSO) or vehicle alone, and added one hour before 50 ng/ml LPS. After incubation for 16 hrs, culture media was collected for PGE2 or TXB2 measurement by ELISA (Cayman Chemical), and TNFα measurement using an ELISA (Becton Dickinson).

[2] = tested on: PMA-induced ear swelling; assay: Murine ear inflammation assay, PMA; type: in vivo, mouse; settings: 25 mg/kg i/p
Description: Groups of 5-6 female BALB/c mice (ARC, WA, Australia), weighing 15-21 g were injected intraperitoneally (i/p) with selected compounds of the formula (I) at 25 mg/kg delivered in polyethylene glycol (PEG) 400: phosphate buffered saline (PBS) 1:1 or ethanol: propanediol:PBS 4:9:7 either 30 min prior to or immediately before the inflammogen was applied to the ears. Mice were anaesthetised using isoflurane and baseline thickness of both ears was measured using a spring micrometer. Each mouse received a total of […] of either AA in ethanol (50 mg/ml or 200 mg/ml) or PMA in either ethanol or acetone (0.2 mg/ml) applied to the inner and outer surfaces of each pinna (i.e. 0.5 mg or 2 mg AA or 2 μg PMA per ear). Mice were anaesthetised again to re-measure the ears at 1 hr post-AA application and 5 hr after PMA. The difference in ear swelling pre- and post-application of inflammogen for each ear was calculated, and the average for the two ears of each mouse taken. The difference in mean swelling of each test group compared to the group given vehicle alone was calculated using a general ANOVA using Dunnett's Multiple Comparison test when multiple compounds were tested in the one experiment or a two-tailed unpaired t-test when only one compound was tested (Prism 4, Graphpad Software).

[3] = tested on: low density lipoprotein (LDL); assay: Cu2+-induced oxidation of LDL (FOX assay); type: biochemical; set-up: lipid peroxide formation: unit not given here
Description: Blood was collected by venipuncture and plasma separated by centrifugation. LDL was then isolated from plasma using a 4-step sodium chloride density gradient and ultracentrifuged at 200,000 g for 20 hours at 4° C. The collect LDL was purified by passage through gel filtration PD10 column to remove excess salt and EDTA, and stored in the dark at 4° C. to prevent auto-oxidation and used with two weeks of isolation. The LDL cholesterol content was measure using a standard enzymatic method and protein concentration determined by the Lowry method using BSA as the standard.
On the day of each experiment a 2 mL aliquot of LDL was passed through a second PD10 column and diluted with chelex treated PBS (100 mM) to give a standard protein concentration of 0.1 mg/mL, ie final concentration per reaction. Oxidation reactions were initiated by the addition of freshly prepared Cu^2+ solution, such that the final concentration of CuSO4 was 5 μM. […] The extent of lipoprotein oxidation was determined by measuring the formation of lipid-peroxides on aliquots removed every 30-minute over a 3-hour period. Peroxides were determined at each time point by the ferrous oxidation-xylenol orange (FOX) assay using standard hydrogen peroxide curve (5 to 200 μM). Compound (1) was examined in at least two separate experiments performed on separate days.

[4] = tested on: splenocytes (T and B cells); assay: Mitogen-stimulated splenocyte proliferation (MTT); type: cell-based, mouse; settings: 10 μM, 3 day incubation, ConA or LPS
Description: Male Skh-1:HR1 (hairless) mice, approximately six weeks old were killed by cervical dislocation. Single cell suspensions were made from the spleen and erythrocytes were lysed in buffer (0.14M NH4Cl, 17 mM Tris, pH 7.2). The remaining splenocytes were cultured in RPMI-1640 (Gibco) supplemented with 10% (v:v) FBS, 200 mM L-glutamine, penicillin/streptomycin and […] 2-mercaptoethanol. Splenocytes were added to quadruplicate wells containing either concanavalin A (ConA, Sigma-Aldrich—0.4 μg/well), LPS (Sigma-Aldrich—1 μg/well) or no mitogen, as well 10 μM of test compound in DMSO. Samples were analysed after a 3 day incubation at 37° C. in 5% CO2 in air. Methylthiazoletetrazolium (MTT) is bioreduced by viable cells into a coloured formazan product that is soluble in DMSO. Thus the quantity of formazan product is directly proportional to the number of living cells in culture, and can be measured using a spectrophotometer at 570 nm. MTT was added to each well, incubated for a further 4 hrs and then colour developed with 0.04N HCl in isopropanol. Culture supernatants were stored after collection at −80° C. and both T and B cells analysed by ELISA (BD Biosciences) for IFN-γ (a Th-1 cytokine) and for T cells alone, IL-6 (a Th-2 cytokine).

O=C(O)C1CCCN1Cc1cc2c(cc1O)OCC(c1ccc(O)cc1)=C2 (stereo not drawn) [Compound (3)] was tested, and the “TXB2” value ([1]; 1 μM) was 374.8 ± 132.29 pg/mL, the “TXB2” value ([1]; 10 μM) was 287.04 ± 75.58 pg/mL and the “% Change compared with vehicle” value [2] was 0%. For the same compound, the “Change in ear thickness (mean ± SD, ×0.01 mm)” value ([2]; 5 hr after PMA) was 37.9 ± 2.6 ×0.01 mm, the lipid peroxide formation ([3]; Compound (3) 10 μM + Cu++ 5 μM, no LDL, 0 min) was 2.36 ± 5.25 and the lipid peroxide formation ([3]; Compound (3) 10 μM + Cu++ 5 μM, no LDL, 30 min) was −3.75 ± 3.02. The lipid peroxide formation ([3]; Compound (3) 10 μM + Cu++ 5 μM, no LDL, 60 min) was −1.38 ± 2.64, the lipid peroxide formation ([3]; Compound (3) 10 μM + Cu++ 5 μM, no LDL, 90 min) was −0.82 ± 2.31 and the lipid peroxide formation ([3]; Compound (3) 10 μM + Cu++ 5 μM, no LDL, 120 min) was −2.48 ± 2.55. For the same compound, the lipid peroxide formation ([3]; Compound (3) 10 μM + Cu++ 5 μM, no LDL, 150 min) was −6.22 ± 6.83, the IC50 ([3]; LDL 0.1 mg/mL, CuSO4 5 μM, read-out: IC50, concentration at which 50% of the LDL oxidation was inhibited) was 500 nM and the lipid peroxide formation ([3]; LDL 0.1 mg/ml + compound (3) 0.01 μM + Cu++ 5 μM, 0 min) was 5.55 ± 0.22. It also gave a lipid peroxide formation ([3]; LDL 0.1 mg/ml + compound (3) 0.01 μM + Cu++ 5 μM, 30 min) of 2.85 ± 2.80, a lipid peroxide formation ([3]; LDL 0.1 mg/ml + compound (3) 0.01 μM + Cu++ 5 μM, 60 min) of 25.92 ± 13.53 and a lipid peroxide formation ([3]; LDL 0.1 mg/ml + compound (3) 0.01 μM + Cu++ 5 μM, 90 min) of 88.97 ± 3.03. The lipid peroxide formation ([3]; LDL 0.1 mg/ml + compound (3) 0.01 μM + Cu++ 5 μM, 120 min) was 131.94 ± 4.81, the lipid peroxide formation ([3]; LDL 0.1 mg/ml + compound (3) 0.01 μM + Cu++ 5 μM, 150 min) was 137.86 ± 26.03 and the lipid peroxide formation ([3]; LDL 0.1 mg/ml + compound (3) 0.1 μM + Cu++ 5 μM, 0 min) was 5.62 ± 0.85. It also gave a lipid peroxide formation ([3]; LDL 0.1 mg/ml + compound (3) 0.1 μM + Cu++ 5 μM, 30 min) of 3.24 ± 1.93, a lipid peroxide formation ([3]; LDL 0.1 mg/ml + compound (3) 0.1 μM + Cu++ 5 μM, 60 min) of 18.89 ± 7.84 and a lipid peroxide formation ([3]; LDL 0.1 mg/ml + compound (3) 0.1 μM + Cu++ 5 μM, 90 min) of 73.79 ± 1.40. The lipid peroxide formation ([3]; LDL 0.1 mg/ml + compound (3) 0.1 μM + Cu++ 5 μM, 120 min) was 138.28 ± 2.75, the lipid peroxide formation ([3]; LDL 0.1 mg/ml + compound (3) 0.1 μM + Cu++ 5 μM, 150 min) was 155.66 ± 21.85 and the lipid peroxide formation ([3]; LDL 0.1 mg/ml + compound (3) 1.0 μM + Cu++ 5 μM, 0 min) was 7.38 ± 2.69. For the same compound, the lipid peroxide formation ([3]; LDL 0.1 mg/ml + compound (3) 1.0 μM + Cu++ 5 μM, 30 min) was −2.09 ± 9.59, the lipid peroxide formation ([3]; LDL 0.1 mg/ml + compound (3) 1.0 μM + Cu++ 5 μM, 60 min) was 7.21 ± 4.53 and the lipid peroxide formation ([3]; LDL 0.1 mg/ml + compound (3) 1.0 μM + Cu++ 5 μM, 90 min) was 7.13 ± 3.76. For the same compound, the lipid peroxide formation ([3]; LDL 0.1 mg/ml + compound (3) 1.0 μM + Cu++ 5 μM, 120 min) was 11.69 ± 7.30, the lipid peroxide formation ([3]; LDL 0.1 mg/ml + compound (3) 1.0 μM + Cu++ 5 μM, 150 min) was 79.63 ± 27.82 and the lipid peroxide formation ([3]; LDL 0.1 mg/ml + compound (3) 10 μM + Cu++ 5 μM, 0 min) was 1.62 ± 4.14. It also gave a lipid peroxide formation ([3]; LDL 0.1 mg/ml + compound (3) 10 μM + Cu++ 5 μM, 30 min) of 2.59 ± 2.96, a lipid peroxide formation ([3]; LDL 0.1 mg/ml + compound (3) 10 μM + Cu++ 5 μM, 60 min) of 5.65 ± 2.55 and a lipid peroxide formation ([3]; LDL 0.1 mg/ml + compound (3) 10 μM + Cu++ 5 μM, 90 min) of 4.40 ± 1.13. The lipid peroxide formation ([3]; LDL 0.1 mg/ml + compound (3) 10 μM + Cu++ 5 μM, 120 min) was 3.57 ± 2.23, the lipid peroxide formation ([3]; LDL 0.1 mg/ml + compound (3) 10 μM + Cu++ 5 μM, 150 min) was 4.15 ± 2.87 and the “Effect on splenocyte (T and B cell) numbers” value [4] was “little effect on cell numbers”.
